Test results: patent US11236046B2, “Substituted heterocyclic sulfonamide compounds useful as TRPA1 modulators” (Genentech, Inc., priority 2013, dated 2022)

Target: human TRPA1 (Homo sapiens (Human), UniProt O75762)
Experiment: FLIPR Tetra calcium influx assay, block of cinnamaldehyde-induced calcium influx in CHO cells expressing TRPA1 (human)
Type: cell-based
Conditions: 20 min compound incubation, 75 uM cinnamaldehyde (~EC80), Hill coefficient fixed to 1.5, read-out: hTRPA1 AUC IC50
Procedure, shortened: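 CHO cells loaded with calcium dye, preincubated with compounds 20 min at room temperature in HBSS/20 mM HEPES pH 7.4 with 0.02% BSA. Channels activated by ~EC80 cinnamaldehyde (75 uM human, 45 uM rat); block of calcium influx read on FLIPR Tetra, IC50 fitted with fixed Hill coefficient.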

Sequence of human TRPA1 (O75762 whole entry): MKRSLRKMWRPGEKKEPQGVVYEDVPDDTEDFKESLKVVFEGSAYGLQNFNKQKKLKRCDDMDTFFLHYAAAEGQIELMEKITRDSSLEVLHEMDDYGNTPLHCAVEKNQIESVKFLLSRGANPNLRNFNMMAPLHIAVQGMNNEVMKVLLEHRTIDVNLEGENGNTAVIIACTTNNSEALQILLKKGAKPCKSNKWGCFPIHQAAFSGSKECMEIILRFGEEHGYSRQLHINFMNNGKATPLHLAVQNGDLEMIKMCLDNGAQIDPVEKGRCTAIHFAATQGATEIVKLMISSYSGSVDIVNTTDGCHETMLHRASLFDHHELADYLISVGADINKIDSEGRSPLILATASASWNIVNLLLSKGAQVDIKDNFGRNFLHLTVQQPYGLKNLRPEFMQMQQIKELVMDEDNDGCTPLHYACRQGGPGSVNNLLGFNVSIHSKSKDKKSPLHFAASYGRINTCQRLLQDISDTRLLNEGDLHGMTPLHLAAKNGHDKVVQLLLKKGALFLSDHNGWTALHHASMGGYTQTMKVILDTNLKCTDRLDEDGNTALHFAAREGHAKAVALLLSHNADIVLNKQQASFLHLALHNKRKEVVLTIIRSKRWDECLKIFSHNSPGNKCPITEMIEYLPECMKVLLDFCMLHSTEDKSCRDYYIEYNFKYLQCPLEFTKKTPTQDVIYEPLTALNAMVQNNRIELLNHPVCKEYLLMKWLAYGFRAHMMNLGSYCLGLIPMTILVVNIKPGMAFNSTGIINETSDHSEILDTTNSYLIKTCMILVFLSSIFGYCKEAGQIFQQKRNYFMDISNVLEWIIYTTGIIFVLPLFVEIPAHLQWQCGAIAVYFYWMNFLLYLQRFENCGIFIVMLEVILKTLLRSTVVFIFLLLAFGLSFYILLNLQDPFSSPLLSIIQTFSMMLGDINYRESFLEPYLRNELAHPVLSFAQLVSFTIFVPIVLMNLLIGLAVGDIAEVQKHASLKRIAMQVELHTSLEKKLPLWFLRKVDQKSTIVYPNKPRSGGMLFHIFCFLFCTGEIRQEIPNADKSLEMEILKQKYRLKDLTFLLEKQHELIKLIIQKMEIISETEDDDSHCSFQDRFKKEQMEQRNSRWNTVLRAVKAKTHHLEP

Row | Compound | IC50
1 | O=C(NCc1cn(-c2ccc(C(F)(F)F)nc2)nc1Cl)[C@@H]1C[C@@H](F)CN1S(=O)(=O)c1ccc(F)cc1 [Example 146, (2S,4R)—N-([3-chloro-1-[6-(trifluoromethyl)pyridin-3-yl]-1H-pyrazol-4-yl]methyl)-4-fluoro-1-[(4-fluorobenzene)sulfonyl]pyrrolidine-2-carboxamide] | 78 nM
2 | O=C(NCc1cn(-c2ccc(C(F)(F)F)cc2)nc1Cl)[C@@H]1C[C@@H](F)CN1S(=O)(=O)c1ccc(F)cc1 [Example 137, (2S,4R)—N-([3-chloro-1-[4-(trifluoromethyl)phenyl]-1H-pyrazol-4-yl]methyl)-4-fluoro-1-[(4-fluorobenzene)sulfonyl]pyrrolidine-2-carboxamide] | 78 nM
3 | O=C(NCc1cn(-c2ccc(C(F)(F)F)nc2)nc1Cl)[C@@H]1CCN1S(=O)(=O)c1ccc(F)cc1 [Example 199, (2S)—N-([3-chloro-1-[6-(trifluoromethyl)pyridin-3-yl]-1H-pyrazol-4-yl]methyl)-1-[(4-fluorobenzene)sulfonyl]azetidine-2-carboxamide] | 138 nM
4 | O=C(NCc1cc(-c2ccc(C(F)(F)F)nc2)ncc1F)[C@@H]1C[C@@H](F)CN1S(=O)(=O)c1ccc(F)cc1 [Example 141, (2S,4R)-4-fluoro-N-((5-fluoro-6′-(trifluoromethyl)-2,3′-bipyridin-4-yl)methyl)-1-(4-fluorophenylsulfonyl)pyrrolidine-2-carboxamide] | 68 nM
5 | O=C(NCc1cc(F)cc(-n2cc(C(F)(F)F)cn2)c1)[C@@H]1C[C@@H](F)CN1S(=O)(=O)c1ccc(F)cc1 [Example 86, (2S,4R)-4-fluoro-1-(4-fluorophenyl)sulfonyl-N-[[3-fluoro-5-[4-(trifluoromethyl)pyrazol-1-yl]phenyl]methyl]pyrrolidine-2-carboxamide] | 119 nM
6 | COc1nn(-c2cnc(C(F)(F)F)cn2)cc1CNC(=O)[C@@H]1C[C@@H](F)CN1S(=O)(=O)c1ccc(F)cc1 [Example 58, (2S,4R)-4-fluoro-1-(4-fluorophenyl)sulfonyl-N-[[3-methoxy-1-[5-(trifluoromethyl)pyrazin-2-yl]pyrazol-4-yl]methyl]pyrrolidine-2-carboxamide] | 14 nM
7 | O=C(NCc1cc(-c2cnc(C(F)(F)F)nc2)ncc1Cl)[C@@H]1C[C@@H](F)CN1S(=O)(=O)c1ccc(F)cc1 [Example 184, (2S,4R)—N-([5-chloro-2-[2-(trifluoromethyl)pyrimidin-5-yl]pyridin-4-yl]methyl)-4-fluoro-1-[(4-fluorobenzene)sulfonyl]pyrrolidine-2-carboxamide] | 10 nM
8 | O=C(NCc1cc(-c2ccc(C3CC3)cc2)ncn1)[C@@H]1C[C@@H](F)CN1S(=O)(=O)c1ccc(F)cc1 [Example 155, (2S,4R)—N-((6-(4-cyclopropylphenyl)pyrimidin-4-yl)methyl)-4-fluoro-1-(4-fluorophenylsulfonyl)pyrrolidine-2-carboxamide] | 134 nM
9 | O=C(NCc1cc(F)cc(-c2cnc(C(F)(F)F)nc2)c1)[C@]12C[C@H]1CCN2S(=O)(=O)c1ccc(F)cc1 [Example 181, (1R,5S)-4-(4-fluorophenyl)sulfonyl-N-[[3-fluoro-5-[2-(trifluoromethyl)pyrimidin-5-yl]phenyl]methyl]-4-azabicyclo[3.1.0]hexane-5-carboxamide] | 10 nM
10 | O=C(NCc1cc(-c2cnc(C(F)(F)F)nc2)ccc1F)[C@@H]1[C@H]2C[C@H]2CN1S(=O)(=O)c1ccc(F)cc1 [Example 183, (1S,2S,5R)—N-(2-fluoro-5-(2-(trifluoromethyl)pyrimidin-5-yl)benzyl)-3-((4-fluorophenyl)sulfonyl)-3-azabicyclo[3.1.0]hexane-2-carboxamide] | 3 nM
11 | O=C(NCc1cc(F)cc(-c2ccc(C(F)F)nc2)c1)[C@@H]1C[C@@H](F)CN1S(=O)(=O)c1ccc(F)cc1 [Example 94, (2S,4R)—N-[[3-[6-(difluoromethyl)-3-pyridyl]-5-fluoro-phenyl]methyl]-4-fluoro-1-(4-fluorophenyl)sulfonyl-pyrrolidine-2-carboxamide] | 29 nM
12 | O=C(NCc1cc(-c2cnc(C(F)(F)F)nc2)ncc1F)[C@@H]1C[C@@H](F)CN1S(=O)(=O)c1ccc(F)cc1 [Example 180, (2S,4R)-4-fluoro-1-(4-fluorophenyl)sulfonyl-N-[[5-fluoro-2-[2-(trifluoromethyl)pyrimidin-5-yl]-4-pyridyl]methyl]pyrrolidine-2-carboxamide] | 26 nM
13 | Nc1nc(C(F)(F)F)ccc1-c1cc(CNC(=O)[C@@H]2C[C@@H](F)CN2S(=O)(=O)c2ccc(F)cc2)ccn1 [Example 178, (2S,4R)—N-[[2-[2-amino-6-(trifluoromethyl)-3-pyridyl]-4-pyridyl]methyl]-4-fluoro-1-(4-fluorophenyl)sulfonyl-pyrrolidine-2-carboxamide] | 175 nM
14 | C[C@@]1(C(=O)NCc2cc(-c3ccc(C(F)(F)F)nc3)ncn2)CCN1S(=O)(=O)c1ccc(F)cc1 [Example 198, (S)-1-(4-fluorophenylsulfonyl)-2-methyl-N-((6-(6-(trifluoromethyl)pyridin-3-yl)pyrimidin-4-yl)methyl)azetidine-2-carboxamide] | 59 nM
15 | O=C(NCc1cc(F)cc(-c2cnc(C(F)(F)F)nc2)c1)[C@@H]1[C@@H](F)CCN1S(=O)(=O)c1ccc(F)cc1 [Example 68, (2R,3S)-3-fluoro-1-(4-fluorophenyl)sulfonyl-N-[[3-fluoro-5-[2-(trifluoromethyl)pyrimidin-5-yl]phenyl]methyl]pyrrolidine-2-carboxamide] | 7 nM
16 | O=C(NCc1ccnc(-c2cnc(C(F)(F)F)cn2)c1)[C@@H]1C[C@@H](F)CN1S(=O)(=O)c1ccc(F)cc1 [Example 67, (2S,4R)-4-fluoro-1-(4-fluorophenyl)sulfonyl-N-[[2-[5-(trifluoromethyl)pyrazin-2-yl]-4-pyridyl]methyl]pyrrolidine-2-carboxamide] | 290 nM
17 | O=C(NCc1cc(-c2ccc(C(F)(F)F)nc2)ncn1)[C@@H]1C[C@H]2C[C@H]2N1S(=O)(=O)c1ccc(F)cc1 [Example 123, (1R,3S,5R)-2-(4-fluorophenyl)sulfonyl-N-[[6-[6-(trifluoromethyl)-3-pyridyl]pyrimidin-4-yl]methyl]-2-azabicyclo[3.1.0]hexane-3-carboxamide] | 156 nM
18 | O=C(NCc1ccnc(-c2cnc(C(F)(F)F)nc2)c1)[C@@H]1[C@H]2C[C@H]2CN1S(=O)(=O)c1ccc(F)cc1 [Example 172, (1R,4S,5S)-3-(4-fluorophenyl)sulfonyl-N-[[2-[2-(trifluoromethyl)pyrimidin-5-yl]-4-pyridyl]methyl]-3-azabicyclo[3.1.0]hexane-4-carboxamide] | 38 nM
19 | C[C@H]1[C@H](F)C[C@@H](C(=O)NCc2ccnc(-c3cnc(C(F)(F)F)nc3)c2)N1S(=O)(=O)c1ccc(F)cc1 [Example 193, (2S,4R,5S)-4-fluoro-1-[(4-fluorobenzene)sulfonyl]-5-methyl-N-([2-[2-(trifluoromethyl)pyrimidin-5-yl]pyridin-4-yl]methyl)pyrrolidine-2-carboxamide] | 15 nM
20 | COc1nn(-c2ccc(C(F)(F)F)cc2)cc1CNC(=O)[C@@H]1C[C@@H](C#N)CN1S(=O)(=O)c1ccc(F)cc1 [Example 110, (2S,4R)-4-cyano-1-[(4-fluorobenzene)sulfonyl]-N-([3-methoxy-1-[4-(trifluoromethyl)phenyl]-1H-pyrazol-4-yl]methyl)pyrrolidine-2-carboxamide] | 165 nM
21 | Cc1cnc(-c2cnc(C(F)(F)F)nc2)cc1CNC(=O)[C@@H]1C[C@@H](F)CN1S(=O)(=O)c1ccc(F)cc1 [Example 169, (2S,4R)-4-fluoro-1-[(4-fluorobenzene)sulfonyl]-N-([5-methyl-2-[2-(trifluoromethyl)pyrimidin-5-yl]pyridin-4-yl]methyl)pyrrolidine-2-carboxamide] | 116 nM
22 | O=C(NCc1cc(-c2ccc(C(F)(F)F)cc2)ccc1F)[C@@H]1C[C@@H](F)CN1S(=O)(=O)c1ccc(F)cc1 [Example 177, (2S,4R)-4-fluoro-N-((4-fluoro-4′-(trifluoromethyl)-[1,1′-biphenyl]-3-yl)methyl)-1-((4-fluorophenyl)sulfonyl)pyrrolidine-2-carboxamide] | 5 nM
23 | O=C(NCc1ccnc(-c2ccc(OC(F)F)cc2)c1)[C@@H]1C[C@@H](F)CN1S(=O)(=O)c1ccc(F)cc1 [Example 160, (2S,4R)—N-[[2-[4-(difluoromethoxy)phenyl]-4-pyridyl]methyl]-4-fluoro-1-(4-fluorophenyl)sulfonyl-pyrrolidine-2-carboxamide] | 86 nM
24 | C[C@@]1(F)C[C@@H](C(=O)NCc2cc(-c3cnc(C(F)(F)F)nc3)ccc2F)N(S(=O)(=O)c2ccc(F)cc2)C1 [Example 187, (2S,4R)-4-fluoro-N-(2-fluoro-5-(2-(trifluoromethyl)pyrimidin-5-yl)benzyl)-1-((4-fluorophenyl)sulfonyl)-4-methylpyrrolidine-2-carboxamide] | 6 nM
25 | O=C(NCc1cc([C@H]2CC[C@H](C(F)(F)F)CC2)ncn1)[C@@H]1C[C@@H](F)CN1S(=O)(=O)c1ccc(F)cc1 (single isomer, unassigned) [Example 149] | 34 nM
26 | COc1cnc(CNC(=O)[C@]2(C)C[C@@H](F)CN2S(=O)(=O)c2ccc(F)cc2)cc1-c1ccc(C(F)(F)F)nc1 [Example 109, (2S,4R)-4-fluoro-1-(4-fluorophenyl)sulfonyl-N-[[5-methoxy-4-[6-(trifluoromethyl)-3-pyridyl]-2-pyridyl]methyl]-2-methyl-pyrrolidine-2-carboxamide] | 164 nM
27 | O=C(NCc1cc(F)cc(-c2ccc(C(F)(F)F)cn2)c1)[C@@H]1C[C@@H](F)CN1S(=O)(=O)c1ccc(F)cc1 [Example 95, (2S,4R)-4-fluoro-1-(4-fluorophenyl)sulfonyl-N-[[3-fluoro-5-[5-(trifluoromethyl)-2-pyridyl]phenyl]methyl]pyrrolidine-2-carboxamide] | 12 nM
